Converted amounts (≈) assume the structure as drawn.
Tests used:
Solubility in 0.05M PO4- = format: physicochemical; conditions: for solubility: 0.05 M phosphate buffer, aqueous buffer
β1-ADRENOCEPTOR = β1-ADRENOCEPTOR (Homo sapiens, UniProt P08588); conditions: 10 uM; n=2
β2-ADRENOCEPTOR = β2-ADRENOCEPTOR (Homo sapiens, UniProt P07550); conditions: 10 uM; n=2
CA2+ CHANNEL (L-TYPE) = conditions: 10 uM; n=2
GABA-A = conditions: 10 uM; n=2
GABA-A (BENZ[…]) = conditions: 10 uM; n=2
GLYCINE REC. = conditions: 10 uM; n=2
NORE[…]. [1] = target: T1, NORE[…]. (Homo sapiens, UniProt P23975); conditions: 10 uM; n=2
CYP2D6 = CYP2D6 (Homo sapiens, UniProt P10635); test: Cytochrome P450 inhibition assay, CYP2D6; conditions: liver microsomes
Chain of CYP2D6 (P10635 whole entry): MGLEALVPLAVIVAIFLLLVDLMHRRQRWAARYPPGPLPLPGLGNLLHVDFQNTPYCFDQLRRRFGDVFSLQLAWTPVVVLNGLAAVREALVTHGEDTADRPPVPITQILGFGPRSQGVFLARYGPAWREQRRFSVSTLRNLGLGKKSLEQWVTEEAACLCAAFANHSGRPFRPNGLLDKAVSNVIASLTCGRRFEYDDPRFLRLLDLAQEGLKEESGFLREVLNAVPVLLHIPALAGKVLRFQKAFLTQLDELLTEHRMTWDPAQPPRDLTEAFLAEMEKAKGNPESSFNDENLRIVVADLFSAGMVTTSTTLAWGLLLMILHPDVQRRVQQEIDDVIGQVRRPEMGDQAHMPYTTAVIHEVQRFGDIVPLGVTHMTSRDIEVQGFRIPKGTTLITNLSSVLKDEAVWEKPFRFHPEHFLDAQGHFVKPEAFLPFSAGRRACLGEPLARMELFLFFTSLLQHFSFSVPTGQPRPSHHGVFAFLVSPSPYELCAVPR

Solubility in FESSIF = format: physicochemical
5HT2A = 5HT2A (Homo sapiens, UniProt P28223); test: biochemical; conditions: read-out: 5HT2A percent activity or inhibition compared to the assay reference
Chain of 5HT2A (P28223 whole entry): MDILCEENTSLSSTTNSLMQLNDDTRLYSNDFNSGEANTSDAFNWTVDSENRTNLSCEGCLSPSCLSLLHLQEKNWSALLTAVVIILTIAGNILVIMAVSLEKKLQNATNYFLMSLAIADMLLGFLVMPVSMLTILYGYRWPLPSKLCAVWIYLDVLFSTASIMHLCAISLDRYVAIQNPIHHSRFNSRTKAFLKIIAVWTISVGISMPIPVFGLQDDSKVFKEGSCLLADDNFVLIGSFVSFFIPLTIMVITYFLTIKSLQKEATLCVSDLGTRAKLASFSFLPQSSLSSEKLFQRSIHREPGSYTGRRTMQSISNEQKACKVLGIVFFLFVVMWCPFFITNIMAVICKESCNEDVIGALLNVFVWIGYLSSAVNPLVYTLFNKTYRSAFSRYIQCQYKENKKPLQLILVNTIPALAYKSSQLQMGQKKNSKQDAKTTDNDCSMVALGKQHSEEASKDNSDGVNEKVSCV

5HT3 = 5HT3 (Homo sapiens, UniProt P46098); test: biochemical; conditions: read-out: 5HT3 percent activity or inhibition compared to the assay reference
ABL1 = ABL1 (Homo sapiens, UniProt P00519); test: biochemical; conditions: read-out: ABL1 percent activity or inhibition compared to the assay reference
Chain of ABL1 (P00519 whole entry): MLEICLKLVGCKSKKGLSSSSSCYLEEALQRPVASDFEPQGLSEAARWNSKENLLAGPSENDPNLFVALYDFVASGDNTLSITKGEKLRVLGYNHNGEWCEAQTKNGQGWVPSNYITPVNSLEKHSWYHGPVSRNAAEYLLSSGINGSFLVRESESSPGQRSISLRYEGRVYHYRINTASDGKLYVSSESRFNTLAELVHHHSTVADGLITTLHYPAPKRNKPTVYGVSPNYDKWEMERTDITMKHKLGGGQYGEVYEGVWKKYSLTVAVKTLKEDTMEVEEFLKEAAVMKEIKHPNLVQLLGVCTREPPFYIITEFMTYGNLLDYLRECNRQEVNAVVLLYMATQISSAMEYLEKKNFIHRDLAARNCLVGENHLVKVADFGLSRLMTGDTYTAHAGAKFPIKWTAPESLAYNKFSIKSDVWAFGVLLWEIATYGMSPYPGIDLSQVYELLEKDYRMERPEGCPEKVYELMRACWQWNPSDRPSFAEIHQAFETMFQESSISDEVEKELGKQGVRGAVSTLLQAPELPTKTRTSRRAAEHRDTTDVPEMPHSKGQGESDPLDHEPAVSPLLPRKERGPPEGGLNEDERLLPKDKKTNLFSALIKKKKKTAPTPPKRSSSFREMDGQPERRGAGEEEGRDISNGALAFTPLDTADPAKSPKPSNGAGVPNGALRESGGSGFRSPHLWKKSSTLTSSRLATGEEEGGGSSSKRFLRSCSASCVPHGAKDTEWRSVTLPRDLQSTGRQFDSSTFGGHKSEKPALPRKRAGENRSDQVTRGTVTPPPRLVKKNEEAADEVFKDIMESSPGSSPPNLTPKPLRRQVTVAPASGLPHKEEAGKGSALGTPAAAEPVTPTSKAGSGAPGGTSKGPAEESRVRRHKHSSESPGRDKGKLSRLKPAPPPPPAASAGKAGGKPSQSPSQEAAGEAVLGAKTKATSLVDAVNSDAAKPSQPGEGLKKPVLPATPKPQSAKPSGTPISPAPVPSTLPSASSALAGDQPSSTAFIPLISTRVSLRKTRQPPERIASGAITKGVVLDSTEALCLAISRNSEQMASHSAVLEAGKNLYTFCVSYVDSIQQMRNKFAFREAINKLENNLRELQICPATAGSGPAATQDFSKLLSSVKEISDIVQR

ACETYLCHOLINESTERASE = ACETYLCHOLINESTERASE (Homo sapiens, UniProt P22303); test: biochemical; conditions: read-out: ACETYLCHOLINESTERASE percent activity or inhibition compared to the assay reference
Chain of UniProt P22303 (P22303 32-614): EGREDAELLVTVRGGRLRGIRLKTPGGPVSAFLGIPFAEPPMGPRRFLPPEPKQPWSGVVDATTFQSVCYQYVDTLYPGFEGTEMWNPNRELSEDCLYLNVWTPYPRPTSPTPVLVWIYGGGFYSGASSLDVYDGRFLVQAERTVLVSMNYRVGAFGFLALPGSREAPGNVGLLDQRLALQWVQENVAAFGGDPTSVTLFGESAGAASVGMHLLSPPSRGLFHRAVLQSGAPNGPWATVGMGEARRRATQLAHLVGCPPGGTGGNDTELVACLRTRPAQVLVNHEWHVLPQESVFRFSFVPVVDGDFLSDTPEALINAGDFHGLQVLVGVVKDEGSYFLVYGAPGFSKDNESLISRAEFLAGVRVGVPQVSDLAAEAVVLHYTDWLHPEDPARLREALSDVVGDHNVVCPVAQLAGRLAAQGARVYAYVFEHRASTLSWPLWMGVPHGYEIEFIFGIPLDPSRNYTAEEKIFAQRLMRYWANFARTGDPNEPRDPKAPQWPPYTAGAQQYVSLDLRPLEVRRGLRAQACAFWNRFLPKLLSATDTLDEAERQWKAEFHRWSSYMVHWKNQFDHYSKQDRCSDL

ADENOSINE A1 REC. = ADENOSINE A1 REC. (Homo sapiens, UniProt P30542); test: biochemical; conditions: read-out: ADENOSINE A1 REC. percent activity or inhibition compared to the assay reference
Chain of ADENOSINE A1 REC. (P30542 whole entry): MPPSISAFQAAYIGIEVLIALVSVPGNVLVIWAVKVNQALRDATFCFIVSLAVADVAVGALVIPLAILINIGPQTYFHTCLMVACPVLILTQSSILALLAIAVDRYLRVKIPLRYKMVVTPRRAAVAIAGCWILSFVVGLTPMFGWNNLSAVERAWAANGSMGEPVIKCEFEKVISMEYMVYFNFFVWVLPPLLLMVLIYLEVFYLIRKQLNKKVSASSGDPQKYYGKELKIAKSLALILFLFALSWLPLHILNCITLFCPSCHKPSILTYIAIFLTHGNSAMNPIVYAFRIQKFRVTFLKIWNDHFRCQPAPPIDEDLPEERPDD

ADENOSINE A3 REC. = ADENOSINE A3 REC. (Homo sapiens, UniProt P0DMS8); test: biochemical; conditions: read-out: ADENOSINE A3 REC. percent activity or inhibition compared to the assay reference
Chain of ADENOSINE A3 REC. (P0DMS8 whole entry): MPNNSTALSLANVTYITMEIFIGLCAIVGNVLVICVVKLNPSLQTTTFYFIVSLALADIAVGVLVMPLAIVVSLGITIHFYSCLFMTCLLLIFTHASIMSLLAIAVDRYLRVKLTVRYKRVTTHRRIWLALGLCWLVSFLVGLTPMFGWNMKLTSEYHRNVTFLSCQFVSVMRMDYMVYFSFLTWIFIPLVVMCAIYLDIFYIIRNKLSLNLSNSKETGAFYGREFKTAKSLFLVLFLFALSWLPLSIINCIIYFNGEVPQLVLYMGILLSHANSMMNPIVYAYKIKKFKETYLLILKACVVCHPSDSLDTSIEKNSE

α1A-ADRENOCEPTOR = α1A-ADRENOCEPTOR (Homo sapiens, UniProt P35348); test: biochemical; conditions: read-out: α1A-ADRENOCEPTOR percent activity or inhibition compared to the assay reference
Chain of UniProt P35348 (P35348 whole entry): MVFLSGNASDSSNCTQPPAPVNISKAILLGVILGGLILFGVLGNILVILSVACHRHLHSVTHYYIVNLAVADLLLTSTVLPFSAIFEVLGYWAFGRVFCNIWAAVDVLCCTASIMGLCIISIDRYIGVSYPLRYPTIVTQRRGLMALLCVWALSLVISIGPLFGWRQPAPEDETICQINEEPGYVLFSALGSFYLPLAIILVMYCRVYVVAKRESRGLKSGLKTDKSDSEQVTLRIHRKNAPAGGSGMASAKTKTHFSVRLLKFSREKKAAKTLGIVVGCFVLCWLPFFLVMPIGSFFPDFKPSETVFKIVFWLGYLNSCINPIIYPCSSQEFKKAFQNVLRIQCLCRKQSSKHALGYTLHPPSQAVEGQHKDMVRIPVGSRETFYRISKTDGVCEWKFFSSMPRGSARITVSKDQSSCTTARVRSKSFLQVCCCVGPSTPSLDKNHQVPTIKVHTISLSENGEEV

ANDROGEN REC. = ANDROGEN REC. (Homo sapiens, UniProt P10275); test: biochemical; conditions: read-out: ANDROGEN REC. percent activity or inhibition compared to the assay reference
CDK2 = CDK2 (Homo sapiens, UniProt P24941); test: biochemical; conditions: read-out: CDK2 percent activity or inhibition compared to the assay reference
CHOLECYSTOKININ 1 REC. = CHOLECYSTOKININ 1 REC. (Homo sapiens, UniProt P32238); test: biochemical; conditions: read-out: CHOLECYSTOKININ 1 REC. percent activity or inhibition compared to the assay reference
Chain of UniProt P32238 (P32238 whole entry): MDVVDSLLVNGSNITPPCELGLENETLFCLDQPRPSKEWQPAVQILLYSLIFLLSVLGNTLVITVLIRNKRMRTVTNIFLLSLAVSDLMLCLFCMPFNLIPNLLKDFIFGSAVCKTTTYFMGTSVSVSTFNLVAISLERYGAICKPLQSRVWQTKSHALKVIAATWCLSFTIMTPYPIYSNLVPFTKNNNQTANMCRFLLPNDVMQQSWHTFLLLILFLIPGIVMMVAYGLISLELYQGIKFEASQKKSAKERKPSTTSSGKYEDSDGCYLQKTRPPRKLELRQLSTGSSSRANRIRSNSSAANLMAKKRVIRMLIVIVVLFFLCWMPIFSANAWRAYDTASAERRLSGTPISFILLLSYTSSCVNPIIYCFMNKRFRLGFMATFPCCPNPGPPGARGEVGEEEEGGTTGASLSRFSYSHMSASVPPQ

GSK-3B = GSK-3B (Homo sapiens, UniProt P49841); test: biochemical; conditions: read-out: GSK-3B percent activity or inhibition compared to the assay reference
HISTAMINE H3 REC. = HISTAMINE H3 REC. (Homo sapiens, UniProt Q9Y5N1); test: biochemical; conditions: read-out: HISTAMINE H3 REC. percent activity or inhibition compared to the assay reference
MONOAMINE OXIDASE-A = MONOAMINE OXIDASE-A (Homo sapiens, UniProt P21397); test: biochemical; conditions: read-out: MONOAMINE OXIDASE-A percent activity or inhibition compared to the assay reference
μ OPIOID REC. = μ OPIOID REC. (Homo sapiens, UniProt P35372); test: biochemical; conditions: read-out: μ OPIOID REC. percent activity or inhibition compared to the assay reference
Chain of μ OPIOID REC. (P35372 whole entry): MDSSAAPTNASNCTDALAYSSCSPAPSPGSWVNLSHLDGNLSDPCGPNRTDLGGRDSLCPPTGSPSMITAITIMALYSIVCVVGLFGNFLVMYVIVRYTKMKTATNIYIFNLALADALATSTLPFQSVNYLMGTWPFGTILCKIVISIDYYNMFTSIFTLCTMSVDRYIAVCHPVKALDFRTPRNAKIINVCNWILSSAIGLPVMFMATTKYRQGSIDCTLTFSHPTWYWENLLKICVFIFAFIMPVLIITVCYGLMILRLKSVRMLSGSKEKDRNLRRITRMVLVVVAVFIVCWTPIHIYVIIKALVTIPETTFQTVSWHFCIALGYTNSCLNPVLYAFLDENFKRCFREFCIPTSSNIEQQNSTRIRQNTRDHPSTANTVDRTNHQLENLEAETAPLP

[…]. M1 = […]. M1 (Homo sapiens, UniProt P11229); test: biochemical; conditions: read-out: […]. M1 percent activity or inhibition compared to the assay reference
[…]. M2 = […]. M2 (Homo sapiens, UniProt P08172); test: biochemical; conditions: read-out: […]. M2 percent activity or inhibition compared to the assay reference
NORE[…]. [2] = target: T1, NORE[…].; test: biochemical; conditions: read-out: NORE[…]. percent activity or inhibition compared to the assay reference
PHOSPHODIESTERASE 4D2 = PHOSPHODIESTERASE 4D2 (Homo sapiens, UniProt Q08499); test: biochemical; conditions: read-out: PHOSPHODIESTERASE 4D2 percent activity or inhibition compared to the assay reference
PROSTAGLANDIN F REC. = PROSTAGLANDIN F REC. (Homo sapiens, UniProt P43088); test: biochemical; conditions: read-out: PROSTAGLANDIN F REC. percent activity or inhibition compared to the assay reference
Chain of UniProt P43088 (P43088 whole entry): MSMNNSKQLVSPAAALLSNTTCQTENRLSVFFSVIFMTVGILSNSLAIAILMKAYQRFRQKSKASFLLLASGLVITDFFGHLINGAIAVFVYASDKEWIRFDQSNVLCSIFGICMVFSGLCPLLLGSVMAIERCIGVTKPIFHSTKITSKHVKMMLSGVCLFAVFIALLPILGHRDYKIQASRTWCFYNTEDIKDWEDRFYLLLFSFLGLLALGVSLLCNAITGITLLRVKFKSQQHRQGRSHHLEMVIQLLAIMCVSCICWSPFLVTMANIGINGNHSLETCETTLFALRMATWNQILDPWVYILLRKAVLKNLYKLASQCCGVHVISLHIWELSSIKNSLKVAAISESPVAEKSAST

XANTHINE OXIDASE = XANTHINE OXIDASE (Bos taurus, UniProt P80457); test: biochemical; conditions: read-out: XANTHINE OXIDASE percent activity or inhibition compared to the assay reference
ZAP70 = ZAP70 (Homo sapiens, UniProt P43403); test: biochemical; conditions: read-out: ZAP70 percent activity or inhibition compared to the assay reference
[3] = Microsomal clearance, human microsomes
[4] = Microsomal clearance, mouse microsomes

Structure (SMILES)	CA2+ CHANNEL (L-TYPE) percent activity or inhibition compared to the assay reference (CA2+ CHANNEL (L-TYPE))	GABA-A percent activity or inhibition compared to the assay reference (GABA-A)	GABA-A (BENZ[…]) percent activity or inhibition compared to the assay reference (GABA-A (BENZ[…]))	GLYCINE REC. percent activity or inhibition compared to the assay reference (GLYCINE REC.)	CYP2D6 Inhibition (CYP2D6)	solubility (Solubility in 0.05M PO4-)	inhibition at 10 µM (5HT2A)	inhibition at 10 µM (5HT3)	inhibition at 10 µM (ABL1)	inhibition at 10 µM (ACETYLCHOLINESTERASE)	inhibition at 10 µM (ADENOSINE A1 REC.)	inhibition at 10 µM (ADENOSINE A3 REC.)	inhibition at 10 µM (α1A-ADRENOCEPTOR)	inhibition at 10 µM (ANDROGEN REC.)	inhibition at 10 µM (CDK2)	inhibition at 10 µM (CHOLECYSTOKININ 1 REC.)	inhibition at 10 µM (GSK-3B)	inhibition at 10 µM (HISTAMINE H3 REC.)	inhibition at 10 µM (MONOAMINE OXIDASE-A)	inhibition at 10 µM (μ OPIOID REC.)	other results
O=C(c1ccc2nc(-c3cnccc3C3(C4CCC4)CC3)oc2c1)N1CCN(c2nc3nc(Cl)ccc3o2)CC1 [Compound 27]	90%	69%	9%	3%	79%																Solubility in 0.05M PO4- (Solubility in 0.05M PO4-): < 0.6 µg/mL; β1-ADRENOCEPTOR percent activity or inhibition compared to the assay reference (β1-ADRENOCEPTOR): 4%; β2-ADRENOCEPTOR percent activity or inhibition compared to the assay reference (β2-ADRENOCEPTOR): -2%; NORE[…]. percent activity or inhibition compared to the assay reference (NORE[…]. [1]): 28%
O=C(c1ccc2nc(-c3cnccc3C3CCCC3)oc2c1)N1CC2(CC(n3cnc(C4CC4)n3)C2)C1 [Compound 29]	32%	61%	-1%	-2%	34%	< 0.05 µg/mL	10%	-2%	-5%	0%	9%	28%	50%	7%	-6%	8%	-19%	12%	0%	30%	solubility (Solubility in FESSIF): 25 µg/mL (≈ 50.5 µM); inhibition at 10 µM ([…]. M1): 8%; inhibition at 10 µM ([…]. M2): 33%; inhibition at 10 µM (NORE[…]. [2]): 22%; inhibition at 10 µM (PHOSPHODIESTERASE 4D2): 65%; inhibition at 10 µM (PROSTAGLANDIN F REC.): 21%; inhibition at 10 µM (XANTHINE OXIDASE): 3%; inhibition at 10 µM (ZAP70): 5%; microsomal CLint at 1 µM [3]: 425 µL/min/mg; microsomal CLint at 1 µM [4]: 536 µL/min/mg
O=C(c1ccc2nc(-c3cccnc3)oc2c1)N1CCN(c2nc3ccccc3c(=O)[nH]2)CC1 [Compound 17]					-24%	4.2 µg/mL (≈ 9.28 µM)	7%	0%	2%	3%	70%	13%	13%	6%	3%	-12%	-21%	14%	7%	48%	inhibition at 10 µM ([…]. M1): 9%; inhibition at 10 µM ([…]. M2): 27%; inhibition at 10 µM (NORE[…]. [2]): 15%; inhibition at 10 µM (PHOSPHODIESTERASE 4D2): 21%; inhibition at 10 µM (PROSTAGLANDIN F REC.): -2%; inhibition at 10 µM (XANTHINE OXIDASE): 2%; inhibition at 10 µM (ZAP70): -2%; microsomal CLint at 1 µM [3]: 10 µL/min/mg; microsomal CLint at 1 µM [4]: 10 µL/min/mg
O=C(c1ccc2nc(-c3cnccc3C3CCCC3)oc2c1)N1CCN(c2nc3nc(Cl)ccc3o2)CC1 [Compound 23]	73%	16%	10%	7%	38%	< 0.05 µg/mL	2%	-6%	-8%	-1%	24%	21%	4%	-10%	8%	9%	-20%	4%	2%	21%	solubility (Solubility in FESSIF): 1.9 µg/mL (≈ 3.59 µM); inhibition at 10 µM ([…]. M1): 10%; inhibition at 10 µM ([…]. M2): 40%; inhibition at 10 µM (NORE[…]. [2]): 15%; inhibition at 10 µM (PHOSPHODIESTERASE 4D2): 20%; inhibition at 10 µM (PROSTAGLANDIN F REC.): -3%; inhibition at 10 µM (XANTHINE OXIDASE): 6%; inhibition at 10 µM (ZAP70): -27%; microsomal CLint at 1 µM [3]: 415 µL/min/mg; microsomal CLint at 1 µM [4]: 176 µL/min/mg

Reference: article PMC12749626, “Expediting hit-to-lead progression in drug discovery through reaction prediction and multi-dimensional optimization” (Nature Communications, 2025)
